Assay results published in PMC2790889 (Nucleic Acids Research, 2009).
Where two headings read alike, the source gives them in different places. Each block holds one compound with its values, some of them ahead of it.

Experiments:
GidA [1] = target: T1, GidA (Escherichia coli, UniProt P0A6U3); assay: Affinity of GidA for FAD and NADH; type: binding
T1 sequence (P0A6U3 1-629): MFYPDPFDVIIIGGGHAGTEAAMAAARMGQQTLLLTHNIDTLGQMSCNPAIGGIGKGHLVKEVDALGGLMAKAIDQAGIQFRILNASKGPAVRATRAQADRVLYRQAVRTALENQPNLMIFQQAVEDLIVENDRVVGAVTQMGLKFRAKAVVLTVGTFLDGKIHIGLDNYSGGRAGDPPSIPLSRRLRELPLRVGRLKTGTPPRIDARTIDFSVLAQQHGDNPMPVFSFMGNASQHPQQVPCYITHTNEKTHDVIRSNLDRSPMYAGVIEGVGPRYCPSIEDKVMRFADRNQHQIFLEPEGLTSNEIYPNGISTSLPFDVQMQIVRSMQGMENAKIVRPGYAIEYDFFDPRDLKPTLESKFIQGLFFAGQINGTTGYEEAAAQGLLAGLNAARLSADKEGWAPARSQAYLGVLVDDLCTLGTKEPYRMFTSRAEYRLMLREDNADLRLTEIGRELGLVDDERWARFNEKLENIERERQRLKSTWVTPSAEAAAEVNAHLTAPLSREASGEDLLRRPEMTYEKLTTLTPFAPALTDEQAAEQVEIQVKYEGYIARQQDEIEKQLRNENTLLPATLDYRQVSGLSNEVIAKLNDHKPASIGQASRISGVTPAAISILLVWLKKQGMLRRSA

TrmFO = conditions: cited from earlier work
GidA [2] = target: T1, GidA; conditions: read-out: Kd (affinity of GidA for NADH); cited from earlier work

Kd (GidA [1]): ~3 µM
Compound: Cc1cc2nc3c(=O)[nH]c(=O)nc-3n(C[C@H](O)[C@H](O)[C@H](O)COP(=O)(O)OP(=O)(O)OC[C@H]3O[C@@H](n4cnc5c(N)ncnc54)[C@H](O)[C@@H]3O)c2cc1C [FAD]

Compound: (6S) THF
concentrations of THF that inhibit the methylene-THF-dependent activity of TrmFO (TrmFO): higher than 2 µM

Compound: NC(=O)C1=CN([C@@H]2O[C@H](COP(=O)(O)OP(=O)(O)OC[C@H]3O[C@@H](n4cnc5c(N)ncnc54)[C@H](O)[C@@H]3O)[C@@H](O)[C@H]2O)C=CC1 [NADH]
Kd (GidA [2]): ~11 µM
